According to the supplement of paper PMC10307832:

Experiments:
Experiment in all cases: relative viability (nuclei count vs DMSO), 5 days (fraction); higher = more cells survive
AZ628 + Tozasertib = compound: CC1=C(C=C(C=C1)NC(=O)C2=CC(=CC=C2)C(C)(C)C#N)NC3=CC4=C(C=C3)N=CN(C4=O)C [AZ628] + Cc1cc(Nc2cc(N3CCN(C)CC3)nc(Sc3ccc(NC(=O)C4CC4)cc3)n2)n[nH]1 [Tozasertib] (partner 0.1 µM)
Method in brief: (§1)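 Relative viability equals treated-well nuclei counts divided by vehicle-well nuclei counts. Counts came from 4× images of lung cancer cell lines grown in 1536-well plates for 5 days after pin-tool dosing on the day after seeding. Dosing used one drug alone or a fixed anchor-drug dose plus five library-drug doses (not always all listed) in √10 steps, and values are medians of duplicate plates.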

[1] = compound: C[As](C)SC[C@H](NC(=O)CC[C@H](N)C(=O)O)C(=O)NCC(=O)O [Darinaparsin] + CC1(C)CCC(c2ccc(Cl)cc2)=C(CN2CCN(c3ccc(C(=O)NS(=O)(=O)c4ccc(N[C@H](CCN5CCOCC5)CSc5ccccc5)c(S(=O)(=O)C(F)(F)F)c4)cc3)CC2)C1 [Navitoclax] (partner 0.5 µM)
Method in brief: as §1

QS11 + Alpelisib = compound: C1CC2=C(C1)C=C(C=C2)OC3=NC(=C4C(=N3)N(C=N4)CC5=CC=C(C=C5)C6=CC=CC=C6)N[C@@H](CC7=CC=CC=C7)CO [QS11] + Cc1nc(NC(=O)N2CCC[C@H]2C(N)=O)sc1-c1ccnc(C(C)(C)C(F)(F)F)c1 [Alpelisib] (partner 2 µM)
Method in brief: as §1

Darinaparsin + AZD7762 = compound: C[As](C)SC[C@H](NC(=O)CC[C@H](N)C(=O)O)C(=O)NCC(=O)O [Darinaparsin] + NC(=O)Nc1cc(-c2cccc(F)c2)sc1C(=O)N[C@H]1CCCNC1 [AZD7762] (partner 0.2 µM)
Method in brief: as §1

Row | Cell Line | relative viability (AZ628 + Tozasertib; first compound 0.08 µM) | relative viability (AZ628 + Tozasertib; first compound 0.253 µM) | relative viability (AZ628 + Tozasertib; first compound 0.8 µM) | relative viability (AZ628 + Tozasertib; first compound 2.53 µM) | relative viability (AZ628 + Tozasertib; first compound 8 µM) | relative viability ([1]; first compound 0.08 µM) | relative viability ([1]; first compound 0.8 µM) | relative viability ([1]; first compound 2.53 µM) | relative viability ([1]; first compound 8 µM) | relative viability (QS11 + Alpelisib; first compound 0.08 µM) | relative viability (QS11 + Alpelisib; first compound 0.253 µM) | relative viability (QS11 + Alpelisib; first compound 0.8 µM) | relative viability (QS11 + Alpelisib; first compound 2.53 µM) | relative viability (QS11 + Alpelisib; first compound 8 µM) | relative viability (Darinaparsin + AZD7762; first compound 0.08 µM) | relative viability (Darinaparsin + AZD7762; first compound 0.8 µM) | relative viability (Darinaparsin + AZD7762; first compound 2.53 µM) | relative viability (Darinaparsin + AZD7762; first compound 8 µM)
1 | SW 1573 | 0.203 | 0.186 | 0.2 | 0.135 | 0.122 | 1.23 | 0.991 | 1.01 | 0.992 | 0.844 | 0.656 | 0.772 | 0.741 | 0.718 |  |  |  | 
2 | NCI-H322M | 0.468 | 0.497 | 0.459 | 0.474 | 0.404 | 1.25 | 1.17 | 1.13 | 1.33 | 0.84 | 0.83 | 0.87 | 0.863 | 0.867 | 0.585 | 0.42 | 0.488 | 0.518
3 | ABC-1 | 0.226 | 0.166 | 0.215 | 0.201 | 0.175 |  |  |  |  | 0.89 | 1.02 | 0.932 | 0.945 | 1.21 | 0.747 | 0.82 | 0.851 | 0.968
4 | NCI-H1993 | 0.613 | 0.617 | 0.591 | 0.602 | 0.555 | 0.801 | 0.836 | 1.04 | 1.16 | 0.559 | 0.643 | 0.693 | 0.699 | 0.668 | 0.965 | 0.723 | 0.628 | 0.84
5 | NCI-H1355 | 0.548 | 0.512 | 0.628 | 0.495 | 0.269 | 1.08 | 0.94 | 0.836 | 1.05 | 0.776 | 0.748 | 0.779 | 0.689 | 0.763 | 0.933 | 0.72 | 0.568 | 0.828
6 | PC-3 [JPC-3] | 0.909 | 0.909 | 0.926 | 0.91 | 0.798 | 0.832 | 0.748 | 0.767 | 0.825 | 1.07 | 0.998 | 1.1 | 1.05 | 1.03 | 0.972 | 0.807 | 0.668 | 0.85
7 | NCI-H2023 | 0.308 | 0.284 | 0.235 | 0.212 | 0.137 | 1.08 | 1.07 | 0.951 | 1.2 | 0.678 | 0.597 | 0.619 | 0.747 | 0.722 |  |  |  | 
8 | NCI-H2342 | 0.616 | 0.529 | 0.673 | 0.514 | 0.471 |  |  |  |  |  |  |  |  |  | 0.642 | 0.463 | 0.418 | 0.498
9 | COR-L23 | 0.186 | 0.15 | 0.157 | 0.146 | 0.12 | 1.38 | 1.12 | 0.945 | 1.16 | 0.828 | 0.665 | 0.698 | 0.589 | 0.617 |  |  |  | 
10 | NCI-H1703 |  |  |  |  |  | 1.63 | 1.27 | 1.32 | 0.926 | 0.322 | 0.409 | 0.32 | 0.331 | 0.446 | 0.199 | 0.186 |  | 0.132
11 | NCI-H1563 |  |  |  |  |  |  |  |  |  | 0.902 | 0.931 | 1.02 | 0.831 | 0.749 |  |  |  | 
